The results in this text go back to US5013734A, “Novel esters of phenylalkanoic acid” (Ono Pharmaceutical Co., Ltd., priority 1989, dated 1991).

One data set addresses T1, β-receptor (trachea) (Cavia porcellus, UniProt Q8K4Z4).
T1 construct: Trachea was cut into zigzag strip and connected to a force transducer; from tissue; host or cells: isolated guinea pig tracheal zigzag strip
Put plainly: Cardio selectivity of β-receptor blocking effect in vitro: isolated trachea, isoproterenol concentration-response. Type of data set: cell-based, guinea pig. To be noted: against isoproterenol (10^-10 M to 10^-4 M), read-out: pA2 value trachea (converted). The text has this: Concentration-response curves to isoproterenol were then obtained.

Data set [1] can be described thus: acute toxicity (LD50), intravenous, mice. To be noted: mouse, in vivo; intravenous administration in mice. From the text:
On the other hand, it was confirmed that the toxicity of the compounds of the present invention was very low. […] Therefore, the compounds of the present invention may be considered to be sufficiently safe and suitable for pharmaceutical use.

For the next data set, the system named is β1 -receptor. Kind of data set: β-blocking activity in vivo: inhibition of isoproterenol-induced tachycardia in anesthetized dogs. To be noted: for Inhibitory effect after administration of compounds of the present invention (inhibition of isoproterenol-induced tachycardia), 10 min: 10 min (during infusion); for Inhibitory effect after administration of compounds of the present invention (inhibition of isoproterenol-induced tachycardia), 10 min / Inhibitory effect after administration of compounds of the present invention (inhibition of isoproterenol-induced tachycardia), 20 min / Inhibitory effect after administration of compounds of the present invention (inhibition of isoproterenol-induced tachycardia), 30 min / Inhibitory effect after administration of compounds of the present invention (inhibition of isoproterenol-induced tachycardia), 35 min / Inhibitory effect after administration of compounds of the present invention (inhibition of isoproterenol-induced tachycardia), 40 min / Inhibitory effect after administration of compounds of the present invention (inhibition of isoproterenol-induced tachycardia), 50 min / Inhibitory effect after administration of compounds of the present invention (inhibition of isoproterenol-induced tachycardia), 60 min: 10 μg/kg/min iv infusion for 30 minutes; for Inhibitory effect after administration of compounds of the present invention (inhibition of isoproterenol-induced tachycardia), 20 min: 20 min (during infusion); for Inhibitory effect after administration of compounds of the present invention (inhibition of isoproterenol-induced tachycardia), 30 min: 30 min (end of infusion); for Inhibitory effect after administration of compounds of the present invention (inhibition of isoproterenol-induced tachycardia), 35 min: 35 min (after infusion); for Inhibitory effect after administration of compounds of the present invention (inhibition of isoproterenol-induced tachycardia), 40 min: 40 min (after infusion); for Inhibitory effect after administration of compounds of the present invention (inhibition of isoproterenol-induced tachycardia), 50 min: 50 min (after infusion); for Inhibitory effect after administration of compounds of the present invention (inhibition of isoproterenol-induced tachycardia), 60 min: 60 min (after infusion); for Duration of action: time required to decrease the inhibition percent 30 minutes after administration to half, 10 μg/kg/min iv infusion. The protocol: β-blocking activity of the compounds of the present invention in vivo
Dogs were anesthetized with sodium barbital (300 mg/kg, ip). A femoral artery and both femoral veins were cannulated. Blood pressure was measured with a pressure transducer. Heart rate was measured from the blood pressure signal using a cardiotachometer. The β-blocking activity was assessed by the inhibition of isoproterenol-induced tachycardia. Isoproterenol was administered intravenously (0.1~0.3 μg/kg) at 10 minutes intervals. When a regular tachycardia induced by isoproterenol was given, the compound of the present invention was administered (10 μg/kg/min, iv infusion) for 30 minutes. Isoproterenol was given repeatedly during and following infusion of a test compound. The inhibitory effects of the compounds of the present invention on tachycardia were calculated.
Inhibition (%)=((ΔRO-ΔRa)/ΔRO)×100
ΔRO: the increment of heart rate by isoproterenol before infusion of the compound of the present invention
ΔRa: the increment of heart rate by isoproterenol during and after infusion of the compound of the present invention

The structures appear in SMILES notation. Counter-ions that a name gives are not always drawn.

T1 sequence (Q8K4Z4 whole entry): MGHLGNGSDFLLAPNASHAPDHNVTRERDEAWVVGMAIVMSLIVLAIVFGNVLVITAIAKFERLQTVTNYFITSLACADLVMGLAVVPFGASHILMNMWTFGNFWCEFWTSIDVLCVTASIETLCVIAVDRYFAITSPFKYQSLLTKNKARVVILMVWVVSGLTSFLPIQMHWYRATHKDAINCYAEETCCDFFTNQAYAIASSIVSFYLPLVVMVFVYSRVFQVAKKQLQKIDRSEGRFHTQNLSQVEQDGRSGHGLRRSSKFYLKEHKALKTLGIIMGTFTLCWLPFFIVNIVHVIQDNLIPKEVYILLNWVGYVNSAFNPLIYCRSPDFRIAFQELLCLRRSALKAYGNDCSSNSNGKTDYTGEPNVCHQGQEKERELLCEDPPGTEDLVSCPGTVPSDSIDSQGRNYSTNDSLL

In the case of `CC1(C)OC[C@@H](COC(=O)CCc2ccc(OC[C@@H](O)CNCCNC(=O)N3CCOCC3)cc2)O1` [2 (b), (2,2-dimethyl-1,3-dioxolan-4S-yl)methyl 3-[4-[2S-hydroxy-3-(2-morpholinocarbonylaminoethyl)aminopropoxy]phenyl]propionate 1/2 oxalate], the Kb on β-receptor (trachea) is 66.1 µM. Also, the median lethal dose (LD50) (in general, the dose expected to kill half of the subjects tested) in data set [1] stood at 290 mg/kg.

Take `O=C(CCc1ccc(OCC(O)CNCCNC(=O)N2CCOCC2)cc1)OCC1COC2(CCCC2)O1` (stereo not shown) [3 (c), (1,4-dioxaspiro[4,4]-nonan-2-yl)methyl 3-[4-[2-hydroxy-3-(2-morpholinocarbonylaminoethyl)aminopropoxy]phenyl]-ropionate 1/2 oxalate]: in the data set with β1 -receptor, the “Inhibitory effect after administration of compounds of the present invention (inhibition of isoproterenol-induced tachycardia), 10 min” value (from here on “Inhibitory effect after administration … 10 min”) came to 38.3%; the “Inhibitory effect after administration of compounds of the present invention (inhibition of isoproterenol-induced tachycardia), 20 min” value (from here on “Inhibitory effect after administration … 20 min”) was found to be 46.9%; the “Inhibitory effect after administration of compounds of the present invention (inhibition of isoproterenol-induced tachycardia), 30 min” value (from here on “Inhibitory effect after administration … 30 min”) came to 40.4%; the “Inhibitory effect after administration of compounds of the present invention (inhibition of isoproterenol-induced tachycardia), 35 min” value (from here on “Inhibitory effect after administration … 35 min”) is recorded as 37.0%. In addition, in the data set on β1 -receptor, the “Inhibitory effect after administration of compounds of the present invention (inhibition of isoproterenol-induced tachycardia), 40 min” value (from here on “Inhibitory effect after administration … 40 min”) is reported as 20.1%; the “Inhibitory effect after administration of compounds of the present invention (inhibition of isoproterenol-induced tachycardia), 50 min” value (from here on “Inhibitory effect after administration … 50 min”) was -2.6%; the “Inhibitory effect after administration of compounds of the present invention (inhibition of isoproterenol-induced tachycardia), 60 min” value (from here on “Inhibitory effect after administration … 60 min”) is given as -1.3%; the Duration of action came out at 10 min.

For the compound `CC1(C)OCC(COC(=O)CCc2ccc(OC[C@@H](O)CNCCNC(=O)N3CCOCC3)c(F)c2)O1` (stereo partly drawn) [3 (e), (2,2-dimethyl-1,3-dioxolan-4-yl)methyl 3-[3-fluoro-4-[2S-hydroxy-3-(2-morpholinocarbonylaminoethyl)aminopropoxy]phenyl]propionate 1/2 oxalate], in the data set on β1 -receptor, the “Inhibitory effect after administration … 10 min” value was determined as 49.6%; the “Inhibitory effect after administration … 20 min” value is on record as 58.5%; the “Inhibitory effect after administration … 30 min” value was determined as 63.8%; the “Inhibitory effect after administration … 35 min” value worked out at 45.4%. Moreover, in the data set on β1 -receptor, the “Inhibitory effect after administration … 40 min” value came out at 32.7%; the “Inhibitory effect after administration … 50 min” value is on record as 10.8%; the “Inhibitory effect after administration … 60 min” value is reported as -3.3%; the Duration of action was 10 min.

With `CC1(C)OCC(COC(=O)CCc2ccc(OC[C@@H](O)CNCCNC(=O)N3CCOCC3)c(C#N)c2)O1` (stereo partly drawn) [3 (j), (2,2-dimethyl-1,3-dioxolan-4-yl)methyl 3-[3-cyano-4-[2S-hydroxy-3-(2-morpholinocarbonylaminoethyl)aminopropoxy]phenyl]propionate 1/2 oxalate], in the data set with β1 -receptor, the “Inhibitory effect after administration … 10 min” value worked out at 75.7%; the “Inhibitory effect after administration … 20 min” value is reported as 69.0%; the “Inhibitory effect after administration … 30 min” value was 68.7%; the “Inhibitory effect after administration … 35 min” value was determined as 48.9%. Moreover, in the data set with β1 -receptor, the “Inhibitory effect after administration … 40 min” value was 38.3%; the “Inhibitory effect after administration … 50 min” value came to 19.3%; the “Inhibitory effect after administration … 60 min” value is 13.6%; the Duration of action was 12 min.

`CN1CCN(C(=O)NCCNC[C@H](O)COc2ccc(CCC(=O)OCC3COC(C)(C)O3)cc2)CC1` (stereo partly drawn) [3 (l), (2,2-dimethyl-1,3-dioxolan-4-yl)methyl 3-[4-[2S-hydroxy-3-[2-(4-methylpiperazin-1-yl)carbonylaminoethyl]aminopropoxy]phenyl]propionate 1/2 oxalate]: in the data set on β1 -receptor, the “Inhibitory effect after administration … 10 min” value is given as 60.2%; the “Inhibitory effect after administration … 20 min” value turned out to be 58.6%; the “Inhibitory effect after administration … 30 min” value was 59.8%; the “Inhibitory effect after administration … 35 min” value is on record as 55.6%. Also, in the data set with β1 -receptor, the “Inhibitory effect after administration … 40 min” value was found to be 41.8%; the “Inhibitory effect after administration … 50 min” value came to 19.6%; the “Inhibitory effect after administration … 60 min” value came to 16.3%; the Duration of action was determined as 15 min.
